The test system of this experiment is E. coli strain CAG18491/pQE15/pREP4. Nature of the experiment: Translational activity: mDHFR synthesis in methionine-depleted cultures of conventional host. The experiment is classed as cell-based. As to conditions: for mDHFR produced relative to cultures supplemented with methionine: control yield = methionine; for Protein Yield: mDHFR from 1-liter cultures supplemented with the analogue; for translational activity: capacity to support mDHFR synthesis in absence of methionine (SDS-PAGE): methionine-depleted minimal medium, IPTG induction. As to the method: Buffers and media were prepared according to standard protocols (Sambrook, J.; Fritsch, E. F.; Maniatis, T. Molecular Cloning: A Laboratory Manual, 2nd Ed. Cold Spring Harbor Laboratory Press, Cold Spring Harbor, N.Y. 1989; Ausubel, F. M.; Brent, K.; Kingston, K. E.; Moore, D. D.; Scidman, J. G.; Smith, J. A.; Struhl, K. Current Protocols in Molecular Biology, John Wiley & Sons, NY 1995). The E. coli methionine auxotroph CAG18491 (λ^−, rph-1, metE3079.:Tn10) (obtained from the Yale E. coli Genetic Stock Center), was transformed with plasmids pREP4 and pQE15 (Qiagen, Valencia, Calif.), to obtain the expression host CAG18491/pQE15/pREP4.
M9AA medium (50 mL) supplemented with 1 mM MgSO4, 0.2 wt % glucose, 1 mg/L thiamine chloride and the antibiotics ampicillin (200 mg/L) and kanamycin (25 mg/L) was inoculated with 2 mL of an overnight culture of CAG18491/pQE15/pREP4. When the turbidity of the culture reached an optical density at 600 nm (OD600) of 0.8, a medium shift was performed. The cells were sedimented for 10 min at 3030 g at 4° C., the supernatant was removed, and the cell pellet was washed twice with 20 mL of M9 medium. Cells were resuspended in 50 mL of the M9AA medium described above, without methionine. […] (0.31 mM), respectively. A culture lacking methionine (or any analogue) served as the negative control. Protein expression was induced by addition of isopropyl-β-D-thiogalactopyranoside (IPTG) to a final concentration of 0.4 mM. Samples were taken every hour for 4 h, the OD600 was measured, and the samples were sedimented. After the supernatant was decanted, the cell pellets were resuspended, in 20 μL distilled H2O.
Protein expression was monitored by SDS polyacrylamide gel electrophoresis (12% acrylamide running gel, 12 mA, 14 h), using a normalized OD600 of 0.2 per sample.
The example presented is for medium supplemented with 3. M9AA medium (100 mL) supplemented with 1 mM MgSO4 0.2 wt % glucose, 1 mg/L thiamine chloride and the antibiotics ampicillin (200 mg/L) and kanamycin (25 mg/L) was inoculated with E. coli strain CAG18491/pQE15/pREP4 and grown overnight at 37° C. This culture was used to inoculate 900 mL M9AA medium supplemented as described. The cells were grown to an OD600 of 0.94 and the medium shift was performed as described for the small scale experiments, followed by addition of 40 mL of 1 mg/mL DL-homopropargylglycine (3). IPTG (0.4 mM) was added, and samples were taken at 1 hour intervals. OD600 was measured, the samples were sedimented and decanted, and the cell pellets were resuspended in 20 μL distilled H2O. Protein expression was monitored by SDS polyacrylamide gel electrophoresis (12% acrylamide running gel, 12 mA, 15 h).
Approximately 4.5 h after induction, cells were sedimented (9,800 g, 10 min, 4° C.) and the supernatant was removed. The pellet was placed in the freezer overnight. The cells were thawed for 30 min at 37° C., 30 mL of buffer (6 M guanidine-HCl, 0.1 M NaH2PO4, 0.01 M Tris, pH 8) was added and the mixture was shaken at room temperature for 1 h. […] The supernatant was loaded on 10 mL of resin which was then washed with 50 mL of guanidine buffer followed by 25 mL of urea buffer (8 M urea, 0.1 M NaH2PO4 and 0.01 M Tris, pH 8). Similar urea buffers were used for three successive 25 mL washes at pH values of 6.3, 5.9 and 4.5, respectively. […] These washes were combined and dialyzed (Spectra/Por membrane 1, MWCO=6-8 kDa) against running distilled water for 4 days, followed by batchwise dialysis against doubly distilled water for one day. […] Amino acid analyses, electrospray mass spectrometry and N-terminal protein sequencing was performed on the mDHFR isolated.

“Also recorded” adds a separate entry of the source.

For `C#CCCC(N)C(=O)O` (racemic) [Analogue 3, DL-homopropargylglycine], the “mDHFR produced relative to cultures supplemented with methionine” value is “equivalent”, the “Protein Yield” value is given as 35 mg/L and the “translational activity: capacity to support mDHFR synthesis in absence of methionine (SDS-PAGE)” value (from here on “translational activity: capacity”) is given as “exhibit translational activity sufficient to allow protein synthesis; also recorded: serve effectively as methionine surrogates; also recorded: can be detected”. Where the note is “mDHFR”, the “substitution/replacement of methionine by analogue (1H NMR, amino acid analysis, N-terminal sequencing together)” value is reported as “near-quantitative replacement of methionine”.

For the molecule `CCC[C@H](N)C(=O)O` [Analogue 8, L-norvaline], the “translational activity: capacity” value is “neither norvaline (8) nor 7 showed translational activity”.

Take `CCCCCC(N)C(=O)O` (racemic) [Analogue 7, DL-2-aminoheptanoic acid]: the “translational activity: capacity” value is “neither norvaline (8) nor 7 showed translational activity”.

On to `CSCC[C@H](N)C(=O)O` [Analogue 1, L-methionine, reference compound], for which the “Protein Yield” value is 35 mg/L and the “translational activity: capacity” value was “can be detected”.

Turning to `C/C=C\CC(N)C(=O)O` (racemic) [Analogue 4, cis-2-amino-4-hexenoic acid], the “translational activity: capacity” value is “prevented incorporation; also recorded: neither 4 nor 5 were indicated to be translationally active”.

For the molecule `C/C=C/CC(N)C(=O)O` (racemic) [Analogue 5, trans-2-amino-4-hexenoic acid], the “Protein Yield” value is 0 mg/L and the “translational activity: capacity” value is “neither 5 or 11 support measurable protein synthesis; also recorded: prevented incorporation; also recorded: neither 4 nor 5 were indicated to be translationally active; also recorded: did not support measurable levels of protein synthesis”.

Take `CCCC[C@H](N)C(=O)O` [Analogue 9, L-norleucine]: the “mDHFR produced relative to cultures supplemented with methionine” value was 57%, the “Protein Yield” value was found to be 20 mg/L and the “translational activity: capacity” value was “confirmed; also recorded: does support protein synthesis; also recorded: can be detected”.

For the molecule 2-butynylglycine [Analogue 11], the “Protein Yield” value is 0 mg/L and the “translational activity: capacity” value is “neither 5 or 11 support measurable protein synthesis; also recorded: not detected; also recorded: did not support measurable levels of protein synthesis”.

Consider `C=CCCC(N)C(=O)O` (racemic) [Analogue 2, DL-2-amino-5-hexenoic acid], for which the “mDHFR produced relative to cultures supplemented with methionine” value was 28%, the “Protein Yield” value is 10 mg/L and the “translational activity: capacity” value is “exhibit translational activity sufficient to allow protein synthesis; also recorded: serve effectively as methionine surrogates; also recorded: can be detected”.

These data come from patent US7723070B2, “Overexpression of aminoacyl-tRNA synthetases for efficient production of engineered proteins containing amino acid analogues” (California Institute of Technology, priority 2000, dated 2010).
